The results in this text go back to article PMC10840383, “Clinical features, functional consequences, and rescue pharmacology of missense GRID1 and GRID2 human variants” (Human Molecular Genetics, 2023).

Experiment [1] concerns the target T1, GluD1-S647F (Homo sapiens, UniProt Q9ULK0, S647F).
T1 construct: expressed in transfected cells; host or cells: Xenopus laevis oocytes injected with cRNA
T1 sequence (Q9ULK0 21-1009 S647F): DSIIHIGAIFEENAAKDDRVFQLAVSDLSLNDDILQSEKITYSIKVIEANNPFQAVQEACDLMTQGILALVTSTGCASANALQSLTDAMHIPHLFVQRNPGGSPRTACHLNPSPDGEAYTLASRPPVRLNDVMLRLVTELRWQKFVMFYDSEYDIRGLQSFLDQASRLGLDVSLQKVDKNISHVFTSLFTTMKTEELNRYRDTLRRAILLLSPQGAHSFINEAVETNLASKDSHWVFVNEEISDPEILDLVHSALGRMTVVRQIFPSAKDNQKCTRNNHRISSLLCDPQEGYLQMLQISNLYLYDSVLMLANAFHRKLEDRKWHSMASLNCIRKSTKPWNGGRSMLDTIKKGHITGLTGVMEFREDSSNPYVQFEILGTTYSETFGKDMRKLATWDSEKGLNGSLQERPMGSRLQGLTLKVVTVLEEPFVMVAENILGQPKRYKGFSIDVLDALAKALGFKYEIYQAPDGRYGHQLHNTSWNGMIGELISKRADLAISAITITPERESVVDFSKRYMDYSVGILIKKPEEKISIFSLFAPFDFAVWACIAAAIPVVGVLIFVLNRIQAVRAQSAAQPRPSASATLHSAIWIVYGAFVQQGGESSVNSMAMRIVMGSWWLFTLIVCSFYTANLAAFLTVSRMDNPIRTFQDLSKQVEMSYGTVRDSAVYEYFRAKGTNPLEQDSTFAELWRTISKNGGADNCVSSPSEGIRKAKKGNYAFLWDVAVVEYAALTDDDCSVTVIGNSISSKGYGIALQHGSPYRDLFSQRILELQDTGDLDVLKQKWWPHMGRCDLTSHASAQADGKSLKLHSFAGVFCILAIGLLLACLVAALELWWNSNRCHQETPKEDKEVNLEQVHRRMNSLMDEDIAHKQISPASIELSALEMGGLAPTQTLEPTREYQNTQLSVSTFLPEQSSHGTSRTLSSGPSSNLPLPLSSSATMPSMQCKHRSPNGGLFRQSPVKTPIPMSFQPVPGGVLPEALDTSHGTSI
In words: TEVC of constitutive current, Xenopus oocytes expressing GluD1-S647F. The format is cell-based. The note with it: positive = increase, negative = decrease of activity.

Experiment [2] concerns the target T2, GluD2-T649M (Rattus norvegicus, UniProt Q63226, T649M).
T2 construct: expressed in transfected cells; host or cells: Xenopus laevis oocytes injected with cRNA
T2 sequence (Q63226 24-1007 T649M): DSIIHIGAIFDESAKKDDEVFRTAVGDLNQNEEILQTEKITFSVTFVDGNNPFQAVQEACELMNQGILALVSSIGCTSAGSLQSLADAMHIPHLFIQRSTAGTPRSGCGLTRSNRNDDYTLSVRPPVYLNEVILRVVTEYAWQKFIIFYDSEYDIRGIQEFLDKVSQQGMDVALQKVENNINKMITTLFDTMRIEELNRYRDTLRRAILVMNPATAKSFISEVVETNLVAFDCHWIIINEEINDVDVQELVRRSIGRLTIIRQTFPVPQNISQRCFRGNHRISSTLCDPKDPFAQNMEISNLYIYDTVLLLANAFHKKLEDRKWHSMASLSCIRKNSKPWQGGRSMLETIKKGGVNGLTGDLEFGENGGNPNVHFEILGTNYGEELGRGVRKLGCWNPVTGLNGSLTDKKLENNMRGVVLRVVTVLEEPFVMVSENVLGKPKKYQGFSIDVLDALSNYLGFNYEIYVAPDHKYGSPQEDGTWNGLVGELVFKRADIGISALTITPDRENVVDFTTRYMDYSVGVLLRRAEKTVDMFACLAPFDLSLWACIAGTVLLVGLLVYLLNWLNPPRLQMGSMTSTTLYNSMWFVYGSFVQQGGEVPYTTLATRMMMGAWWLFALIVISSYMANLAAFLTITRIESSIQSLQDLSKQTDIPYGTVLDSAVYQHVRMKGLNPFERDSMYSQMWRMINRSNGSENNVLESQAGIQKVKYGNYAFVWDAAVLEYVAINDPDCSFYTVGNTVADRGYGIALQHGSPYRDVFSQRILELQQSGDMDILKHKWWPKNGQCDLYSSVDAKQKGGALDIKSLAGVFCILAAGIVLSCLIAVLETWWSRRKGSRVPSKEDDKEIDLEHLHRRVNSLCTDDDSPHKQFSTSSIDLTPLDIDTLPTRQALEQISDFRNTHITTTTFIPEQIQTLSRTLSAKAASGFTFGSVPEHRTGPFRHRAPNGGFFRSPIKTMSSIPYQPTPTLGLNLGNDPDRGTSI
In words: TEVC of constitutive current, Xenopus oocytes expressing GluD2-T649M. The format is cell-based. Conditions: positive = increase, negative = decrease of activity.

As for `N=C(N)c1ccc(OCCCCCOc2ccc(C(=N)N)cc2)cc1` [Pentamidine, pentamidine], the figures for the “Pentamidine effect (Baseline −100 μM Pentamidine)” value in experiment [1] (100 μM pentamidine) and in experiment [2] (100 μM pentamidine) were −47 ± 11 (10) nA and 5.8 ± 7.0 (16) nA, respectively.

As for `N[C@H](CO)C(=O)O` [D-serine], the “D-Serine effect (Baseline −10 mM D-Serine)” value in experiment [1] (10 mM D-serine) was 14 ± 3.8 (10) nA; in experiment [2] (10 mM D-serine), −0.31 ± 2.8 (16) nA.
